This is an account of results in ChEMBL document CHEMBL5729210, “Benzodiazepine derivatives as RSV inhibitors” (2022).

pEC50: −log10 of the molar value. Several values for one entry are separate records, joined by “and”; a condition that tells them apart may be missing. Identical values can stand only once. Where only a bound is given, the exact number is not on record here.

The experiment can be described thus: RSV-A Assay: The description is Japanese.
What is called pEC50 is the negative decadic logarithm of the EC50, by convention in mol/L. Higher therefore signals a small EC50. Take `N#Cc1ccn2ncc(-c3nnc(N[C@H]4N=C(c5ccccc5)c5ccccc5NC4=O)o3)c2c1`: the negative-log EC50 (pEC50) was < 6.10.

As to `Cn1ccnc1-c1nnc(NC2N=C(c3ccccc3)c3ccccc3NC2=O)o1` (configuration not stated), the pEC50 was < 6.10.

`COCCOc1ccc(C(=O)OC)cc1`: the pEC50 is < 6.10.

Regarding `O=C1Nc2ccccc2C(c2ccccc2)=NC1Nc1nnc(-c2cncs2)o1` (configuration not stated), the pEC50 was < 6.10.

`O=C1Nc2ccccc2C(c2ccccc2)=NC1Nc1nnc([C@@H]2CCCO2)o1` (some centres not stated): the negative logarithm of the EC50 (pEC50) is < 6.10.

For `O=C1Nc2ccccc2C(c2ccccc2)=N[C@@H]1Nc1nnc(-c2ncc(C(F)(F)F)cc2NC2COC2)o1`, the pEC50 was > 6.40.

Take `CCOC(=O)c1nc(C(F)(F)F)sc1C1=CCOCC1`: the pEC50 was > 6.40.

Take `CCOC(=O)c1ncc(N2CCCC2)cc1N1CCOCC1`: the pEC50 was > 6.40.

`COCCn1ccnc1-c1nnc(N[C@H]2N=C(c3ccccc3)c3ccccc3NC2=O)o1`: the pEC50 is < 6.10.

Take `O=C1Nc2ccccc2C(c2ccccc2)=NC1Nc1nnc(-c2ccc(Cl)cc2)o1` (configuration not stated): the pEC50 is > 6.40.

With `COC1C2CNCC21` (configuration not stated), the pEC50 was < 6.10.

`N#Cc1ccc(-c2nnc(N[C@H]3N=C(c4ccccc4)c4ccccc4NC3=O)o2)c(N2CCOCC2)c1`: the pEC50 was > 6.40.

For `CCOC(=O)c1ncc(C(F)F)cc1N1CCOCC1`, the pEC50 is > 6.40.

As to `O=C1Nc2ccccc2C(c2ccccc2)=N[C@@H]1Nc1nnc(-c2oc3ccccc3c2N2CCOCC2)o1`, the pEC50 was > 6.40.

Usually EC50 stands for the concentration giving half of the maximal effect. A low value points to higher potency in that assay. For `N#Cc1ccc(-c2nnc(NC3N=C(c4ccccc4)c4ccccc4NC3=O)o2)nc1` (configuration not stated), the half-maximal effective concentration (EC50) result is “in the range around 600 nM”.

As for `O=C1Nc2ccccc2C(c2ccccc2)=N[C@@H]1Nc1nnc(-c2nc(-c3cccnc3)sc2N2CCOCC2)o1`, the pEC50 is > 6.40.

For `O=C1Nc2ccccc2C(c2ccccc2)=N[C@@H]1Nc1nnc(-c2cn(-c3ccc(C(F)(F)F)cn3)nc2N2CCOCC2)o1`, the EC50 result is “in the range around 600 nM”.

For the compound `O=C1OCCc2cc(C(F)(F)F)cnc21`, the pEC50 was < 6.10.

Take `CN(C)c1cc(C(F)(F)F)cnc1-c1nnc(N[C@H]2N=C(c3ccccc3)c3ccccc3NC2=O)o1`: the pEC50 is < 6.10.

As for `CC(F)(F)c1nc(-c2nnc(N[C@H]3N=C(c4ccccc4)c4ccccc4NC3=O)o2)c(N2CCOCC2)s1`, the pEC50 is > 6.40.

Consider `Cc1noc(C)c1-c1cc(C#N)ccc1-c1nnc(N[C@H]2N=C(c3ccccc3)c3ccccc3NC2=O)o1`, for which the negative-log EC50 (pEC50) is < 6.10.

With `Cn1ncc(N2CCOCC2)c1-c1nnc(N[C@H]2N=C(c3ccccc3)c3ccccc3NC2=O)o1`, the concentration giving a half-maximal response (EC50) result was “in the range around 600 nM”.

Turning to `O=C1Nc2ccccc2C(c2ccccc2)=N[C@@H]1Nc1nnc(-c2ncc(C3CC3)cc2N2CCOCC2)o1`, the pEC50 is > 6.40.

On to `COC[C@@H]1C[C@H]1c1cc(C(F)(F)F)cnc1-c1nnc(N[C@@H]2N=C(c3ccccc3)c3ccccc3NC2=O)o1`, for which the negative-log EC50 (pEC50) is < 6.10.

With `O=C1Nc2ccccc2C(c2ccccc2)=N[C@@H]1Nc1nnc(-c2ccc(F)cc2N2CC3CCC(C2)O3)o1`, the EC50 entry was “in the range around 600 nM”.

On to `N#CC1CN(c2ncccc2-c2nnc(NC3N=C(c4ccccc4)c4ccccc4NC3=O)o2)C1` (configuration not stated), for which the negative logarithm of the EC50 (pEC50) was < 6.10.

In the case of `O=C1Nc2ccccc2C(c2ccccc2)=NC1Nc1nnc(C2CCOC2)o1` (configuration not stated), the pEC50 is < 6.10.

Take `O=C1Nc2ccccc2C(c2ccccc2)=N[C@@H]1Nc1nnc(-c2ncc(C(F)(F)F)cc2N2CCC(F)CC2)o1`: the pEC50 was < 6.10.

With `O=C1Nc2ccccc2C(c2ccccc2)=N[C@@H]1Nc1nnc(-c2cn(-c3ccc(C(F)(F)F)nc3)nc2N2CCOCC2)o1`, the EC50 is < 400 nM and in the range around 600 nM.

Turning to `C[C@H]1CN(c2cc(C#N)cnc2-c2nnc(N[C@H]3N=C(c4ccccc4)c4ccccc4NC3=O)o2)CCO1`, the pEC50 is > 6.40.

Regarding `Cc1nc(-c2nnc(NC3N=C(c4ccccc4)c4ccccc4NC3=O)o2)ccc1F` (configuration not stated), the pEC50 is < 6.10.

Take `O=C1Nc2ccccc2C(c2ccccc2)=NC1Nc1nnc(-c2ccc(-n3cccn3)cc2N2CCOCC2)o1` (configuration not stated): the pEC50 is > 6.40.

Turning to `O=C1Nc2ccccc2C(c2ccccc2)=NC1Nc1nnc([C@H]2COCCN2)o1` (some centres not stated), the pEC50 was < 6.10.

`CN1CCN(c2ccc(-c3nnc(NC4N=C(c5ccccc5)c5ccccc5NC4=O)o3)cc2)CC1` (configuration not stated): the pEC50 is < 6.10.

For the compound `O=C1Nc2ccccc2C(c2ccccc2)=N[C@H]1Nc1nnc(-c2nc(C(F)(F)F)sc2N2CCO[C@H]3C[C@H]32)o1`, the negative-log EC50 (pEC50) was < 6.10.

In the case of `O=C1Nc2ccccc2C(c2ccccc2)=NC1Nc1nc(-c2ccccc2)no1` (configuration not stated), the pEC50 was < 6.10.

Take `O=C1Nc2ccccc2C(c2ccccc2)=NC1Nc1nnc(-c2ccc(-n3ccc(C(F)(F)F)n3)cc2)o1` (configuration not stated): the pEC50 is < 6.10.

For `CS(=O)(=O)c1cnc(-c2nnc(N[C@H]3N=C(c4ccccc4)c4ccccc4NC3=O)o2)c(N2CCOCC2)c1`, the pEC50 is < 6.10.

`CN(C)CCOc1ccccc1-c1nnc(NC2N=C(c3ccccc3)c3ccccc3NC2=O)o1` (configuration not stated): the pEC50 was < 6.10.

Turning to `COc1ccc(CN2C(=O)C(NC(=S)NC(=O)c3ccccc3)N=C(c3ccccc3)c3ccccc32)cc1` (configuration not stated), the pEC50 is < 6.10.

As for `COCC(C)(C)Nc1cc(C(F)(F)F)cnc1-c1nnc(N[C@H]2N=C(c3ccccc3)c3ccccc3NC2=O)o1`, the pEC50 is < 6.10.

As for `CS(=O)(=O)c1ccc(-c2nnc(NC3N=C(c4ccccc4)c4ccccc4NC3=O)o2)c(N2CCOCC2)c1` (configuration not stated), the pEC50 is < 6.10.

Regarding `COC[C@@H]1C[C@H]1c1sc(C(F)(F)F)nc1-c1nnc(N[C@H]2N=C(c3ccccc3)c3ccccc3NC2=O)o1`, the pEC50 was < 6.10.

`O=C1Nc2ccccc2C(c2ccccc2)=N[C@@H]1Nc1nnc(-c2ncc(C(F)(F)F)cc2NC[C@@H]2CCCO2)o1`: the EC50 entry is “in the range around 600 nM”.

`O=C1Nc2ccccc2C(c2ccccc2)=NC1Nc1nnc(-c2ncc(N3CCOCC3)cc2Cl)o1` (configuration not stated): the negative logarithm of the EC50 (pEC50) was < 6.10.

For `COc1cccc(-c2nnc(NC3N=C(c4ccccc4)c4ccccc4NC3=O)o2)c1` (configuration not stated), the pEC50 was < 6.10.

As to `C[C@@H]1CN(c2cc(F)ccc2-c2nnc(N[C@H]3N=C(c4ccccc4)c4ccccc4NC3=O)o2)C[C@H](C)O1`, the negative-log EC50 (pEC50) was < 6.10.

Turning to `O=C1Nc2ccccc2C(c2ccccc2)=NC1Nc1nnc(-c2cccc3ccccc23)o1` (configuration not stated), the pEC50 was < 6.10.

With `CC(C)(O)CNc1cc(C(F)(F)F)cnc1-c1nnc(N[C@H]2N=C(c3ccccc3)c3ccccc3NC2=O)o1`, the pEC50 was > 6.40.

With `O=C1Nc2ccccc2C(c2ccccc2)=NC1Nc1nnc(-c2ccccc2NCc2ccccn2)o1` (configuration not stated), the pEC50 is < 6.10.

As for `O=C1Nc2ccccc2C(c2ccccc2)=NC1Nc1nnc(-c2ccc(C(F)(F)F)cc2)o1` (configuration not stated), the pEC50 was < 6.10.

Turning to `N#CCCc1nnc(NC2N=C(c3ccccc3)c3ccccc3NC2=O)o1` (configuration not stated), the pEC50 was < 6.10.

As to `CN(CC(C)(C)O)c1cc(C(F)(F)F)cnc1-c1nnc(N[C@H]2N=C(c3ccccc3)c3ccccc3NC2=O)o1`, the negative logarithm of the EC50 (pEC50) was < 6.10.

For `Cc1ccc2oc(NC3N=C(c4ccccc4)c4ccccc4NC3=O)nc2c1` (configuration not stated), the negative logarithm of the EC50 (pEC50) is < 6.10.

On to `O=C1Nc2ccccc2C(c2ccccc2)=NC1Nc1ncc(-c2ccccc2)s1` (configuration not stated), for which the negative logarithm of the EC50 (pEC50) is < 6.10.

For the compound `O=C1Nc2ccccc2C(c2ccccc2)=NC1Nc1nnc(-c2ccc(F)nc2N2CCOCC2)o1` (configuration not stated), the EC50 result is “in the range around 600 nM and < 400 nM”.

For `O=C1Nc2ccccc2C(c2ccccc2)=N[C@@H]1Nc1nnc(-c2ncc(C(F)(F)F)cc2NCc2ccco2)o1`, the pEC50 is < 6.10.
